Measurements taken from patent publication US5185366A, “Method for treatment and prevention of diseases caused by enveloped viruses, including herpes simplex virus types 1 and 2 diseases, using 3,4-dihydroxy-2H-benzopyran-2H-one” (Ohio State University Research Foundation, priority 1990, dated 1993).
Read-outs that look alike come from different tables or passages of the source.

Tests used:
[1] = tested on: HSV-1; test: Extracellular activity, inhibition of plaque forming units, HSV-1; conditions: extracellular, HSV-1 + 2 × Cmpd (20 μM)
[2] = tested on: HSV-1; test: Intracellular activity, inhibition of plaque forming units, HSV-1; type: cell-based, Herpes simplex virus type 1; conditions: for intracellular antiviral activity: HSV-1, 10 μM; for Plaque Forming Units Mean ± SD: intracellular
[3] = tested on: HSV-2; test: HSV-2 plaque size, intracellular treatment; type: cell-based, Herpes simplex virus type 2
Method: For antiviral studies the diameter of plaques is determined with the aid of a calibrated micrometer slide and a microscope eye piece having scaled markings. A simple random sample is taken and all plaque diameters are measured for both experimental and control groups. Plaque diameter also serves as an indication of inhibition of viral replication. […] Monolayers are then infected, washed with EBSS and | maintenance medium with or without compound added. Cells are stained afte | 48 hours with crystal violet and the plaque diameters are determined with | the aid of a micrometer.

[4] = tested on: HSV-2; test: Intracellular activity, inhibition of plaque forming units, HSV-2; type: cell-based, Herpes simplex virus type 2; conditions: for intracellular antiviral activity: HSV-2, 10 μM; for Plaque Forming Units Mean ± SD: intracellular
[5] = tested on: VSV; test: microbe, parasite or virus in culture; type: cell-based, Vesicular stomatitis virus
[6] = tested on: HSV; test: Selectivity among the viruses tested; type: cell-based, Herpes simplex virus
[7] = tested on: Buffalo green monkey kidney (BGM 70) cells; test: [3H]-thymidine uptake cytotoxicity; type: cell-based; conditions: for inhibition at 0.4 µM / inhibition at 1.6 µM / inhibition at 2.5 µM / inhibition at 10 µM: Chlorocebus sabaeus, read-out: % Inhibition of [3H]-Thymidine Incorporated; for inhibition at 0.4 µM: 0.4 μmol/L; for inhibition at 1.6 µM: 1.6 μmol/L; for inhibition at 2.5 µM: 2.5 μmol/L; for inhibition at 10 µM: 10.0 μmol/L; for toxicity ([3H]-thymidine uptake and/or cell growth): at 10 μM
[8] = listed as 3,4-dihydroxy-2H-1-benzopyran-2-one

**Q.** How did the “Plaque Forming Units Mean ± SD” value ([1]; relative viral conc 10) turn out when `O=c1oc2ccccc2c(O)c1O` [Compound 5, 3,4-dihydroxy-2H-1-benzopyran-2-one] was run?
**A.** 0.3 ± 0.5

**Q.** What about the “Plaque Forming Units Mean ± SD” value ([1]; relative viral conc 100) of the same molecule?
**A.** 9.3 ± 1.5

**Q.** And the intracellular antiviral activity [2]?
**A.** shows both intra- and extra- cellular antiviral activity

**Q.** What about the intracellular antiviral activity [2, 8] of the same molecule?
**A.** exhibits both intracellular and extracellular activity

**Q.** And the inhibition at 10 µM ([2]; Human alphaherpesvirus 1, HSV-1, 10 μM, P<0.01, read-out: inhibition (PFU), intracellularly)?
**A.** 25 to 39%

**Q.** And the inhibition at 10 µM ([2]; Human alphaherpesvirus 1, HSV-1, 10 μM, read-out: % Inhibition of Plaque Forming Units, Intracellularly)?
**A.** 38.4 ± 5.7%

**Q.** What about the inhibition at 10 µM ([2]; Human alphaherpesvirus 1, intracellular, HSV-1: 1 × Cmpd (10 μM), relative viral conc 10, read-out: % Inhibition) of the same molecule?
**A.** 25%

**Q.** What about the inhibition at 10 µM ([2]; Human alphaherpesvirus 1, intracellular, HSV-1: 1 × Cmpd (10 μM), relative viral conc 100, read-out: % Inhibition) of the same molecule?
**A.** 38%

**Q.** What about the “Plaque Forming Units Mean ± SD” value ([2]; HSV-1: 1 × Cmpd (10 μM), relative viral conc 10) of the same molecule?
**A.** 11.0 ± 1.0

**Q.** What about the “Plaque Forming Units Mean ± SD” value ([2]; HSV-1: 1 × Cmpd (10 μM), relative viral conc 100) of the same molecule?
**A.** 106.6 ± 9.3

**Q.** And the inhibition at 10 µM ([3]; Human alphaherpesvirus 2, 48 h, viral-infected cells, 10 μM, read-out: reduction in plaque size)?
**A.** 56%

**Q.** What about the inhibition at 10 µM ([3]; Human alphaherpesvirus 2, intracellularly, 10 μM, relative viral conc 10, read-out: % Inhib (mean plaque diameter)) of the same molecule?
**A.** 56%

**Q.** And the inhibition at 20 µM ([3]; Human alphaherpesvirus 2, intracellularly, 20 μM, relative viral conc 10, read-out: % Inhib (mean plaque diameter))?
**A.** 60%

**Q.** And the “Mean plaque diameter (±SD), Treated” value ([3]; intracellularly, 10 μM, relative viral conc 1)?
**A.** 213 ± 79 micrometers

**Q.** What about the “Mean plaque diameter (±SD), Treated” value ([3]; intracellularly, 10 μM, relative viral conc 10) of the same molecule?
**A.** 221 ± 89 micrometers

**Q.** And the “Mean plaque diameter (±SD), Treated” value ([3]; intracellularly, 20 μM, relative viral conc 1)?
**A.** 205 ± 90 micrometers

**Q.** And the “Mean plaque diameter (±SD), Treated” value ([3]; intracellularly, 20 μM, relative viral conc 10)?
**A.** 202 ± 88 micrometers

**Q.** And the intracellular antiviral activity [4]?
**A.** shows both intra- and extra- cellular antiviral activity

**Q.** What about the intracellular antiviral activity [4, 8] of the same molecule?
**A.** exhibits both intracellular and extracellular activity

**Q.** What about the inhibition at 10 µM ([4]; Human alphaherpesvirus 2, 10 μM, one experiment, n=3 wells, P<0.07, read-out: inhibition (PFU), virus-infected cells) of the same molecule?
**A.** 26 ± 4%

**Q.** What about the inhibition at 10 µM ([4]; Human alphaherpesvirus 2, HSV-2, 10 μM (Table IV), read-out: % Inhibition of Plaque Forming Units, Intracellularly) of the same molecule?
**A.** 36 ± 4.7%

**Q.** And the inhibition at 10 µM ([4]; Human alphaherpesvirus 2, HSV-2, 10 μM, P<0.01, read-out: inhibition (PFU), intracellularly)?
**A.** 25 to 39%

**Q.** And the inhibition at 10 µM ([4]; Human alphaherpesvirus 2, HSV-2, 10.0 μmol/L, read-out: % Inhibition of PFU, IA (intracellular activity))?
**A.** 36%

**Q.** And the inhibition at 10 µM ([4]; Human alphaherpesvirus 2, intracellular, HSV-2: 1 × Cmpd (10 μM), relative viral conc 10, read-out: % Inhibition)?
**A.** 33%

**Q.** And the inhibition at 10 µM ([4]; Human alphaherpesvirus 2, intracellular, HSV-2: 1 × Cmpd (10 μM), relative viral conc 100, read-out: % Inhibition)?
**A.** 39%

**Q.** What about the anti-HSV-2 properties ([4]; at noncytotoxic concentrations) of the same molecule?
**A.** exhibited anti-HSV-2 properties at noncytotoxic concentrations

**Q.** What about the “Plaque Forming Units Mean ± SD” value ([4]; HSV-2: 1 × Cmpd (10 μM), relative viral conc 10) of the same molecule?
**A.** 14.3 ± 1.1

**Q.** What about the “Plaque Forming Units Mean ± SD” value ([4]; HSV-2: 1 × Cmpd (10 μM), relative viral conc 100) of the same molecule?
**A.** 153.6 ± 7.4

**Q.** What about the intracellular antiviral activity ([5]; VSV, n=2) of the same molecule?
**A.** no antiviral activity

**Q.** And the inhibition at 10 µM ([5]; Vesicular stomatitis virus, read-out: % Inhibition of Plaque Forming Units, Intracellularly)?
**A.** 0%

**Q.** And the “selectivity for HSV among the viruses tested” value [6]?
**A.** selective for HSV among the viruses tested

**Q.** What about the inhibition at 0.4 µM ([7]; 24 h) of the same molecule?
**A.** 0%

**Q.** And the inhibition at 1.6 µM ([7]; 24 h)?
**A.** 0%

**Q.** What about the inhibition at 2.5 µM ([7]; 24 h) of the same molecule?
**A.** 0%

**Q.** And the inhibition at 10 µM ([7]; 24 h)?
**A.** 28.4 ± 7.6%

**Q.** And the inhibition at 0.4 µM ([7]; 48 h)?
**A.** 0%

**Q.** And the inhibition at 1.6 µM ([7]; 48 h)?
**A.** 0%

**Q.** And the inhibition at 2.5 µM ([7]; 48 h)?
**A.** 0%

**Q.** And the inhibition at 10 µM ([7]; 48 h)?
**A.** 26.3 ± 6.3%

**Q.** What about the inhibition at 0.4 µM ([7]; 72 h) of the same molecule?
**A.** 0%

**Q.** And the inhibition at 1.6 µM ([7]; 72 h)?
**A.** 0%

**Q.** And the inhibition at 2.5 µM ([7]; 72 h)?
**A.** 0%

**Q.** What about the inhibition at 10 µM ([7]; 72 h) of the same molecule?
**A.** 0%

**Q.** And the “toxicity ([3H]-thymidine uptake and/or cell growth)” value [7]?
**A.** no toxicity

**Q.** What about the “toxicity ([3H]-thymidine uptake and/or cell growth)” value [7, 8] of the same molecule?
**A.** non-toxic
